Results on one molecule are retold here after US20130177904A1, “ARNT ISOFORM 3 AS A PREDICTOR OF AMINOFLAVONE RESPONSIVENESS IN CANCER CELLS” (UNIVERSITY OF MARYLAND, BALTIMORE, priority 2010, published 2013).

The test system of one experiment is SW620. The settings on record: SW620 colon cell line, NIH dose response data; cited from earlier work.
In another experiment the test system is BT-549. As to conditions: BT-549 breast cancer cell line, as determined by the NIH study; cited from earlier work.
Experiment [1] relates to gamma-H2AX in MDA-MBA-468. Briefly: Western blot analysis for phosphorylated H2AX. The format is cell-based, Human. The settings on record: MDA-MBA-468, AF for 24 hrs, FIG. 2B. As to the method:
(§1) Western blot analysis for phosphorylated H2AX (γ-H2AX) was performed by first growing cells to between 50% and 80% confluence and treating them with concentrations of AF for 24 hrs, according to the concentration at which 50% of the proliferation was inhibited (IC50). Cells were collected and centrifuged at 1,000×g for 15 minutes at 4° C. Histones were released by the method described by Meng et al. (Cancer Res, 65(12):5337-43 (2005)). Briefly, pellets were washed twice in PBS, homogenized in 0.2 mol/L H2SO4, and centrifuged at 13,000×g. The supernatant was removed and 0.25 volume of 100% (w/v) trichloroacetic acid was added to precipitate the histones. Samples were then centrifuged again at 13,000×g for 15 mins at 4° C. The supernatant was removed and the remaining pellet was suspended in 100% ethanol overnight. A final centrifugation step was performed at 13,000×g for 15 mins at 4° C. The solute was then dissolved in nuclease-free water. Protein concentration was determined using the Bio-Rad Protein Assay (Bio-Rad, CA). 30 μg of protein was resolved on 4-20% Tris-glycine precast gels (Invitrogen). Proteins were transferred onto a PVDF membrane (Immobilon-P, Millipore) and then blocked with 5% milk in TBST (0.1% Tween-20 in 1× Tris-buffered saline—pH 7.4) for 1 hr. […]

Experiment [2] deals with gamma-H2AX in MDA-MBA-231. Kind of experiment: Western blot analysis for phosphorylated H2AX. It is filed as cell-based, Human. As to conditions: MDA-MBA-231, AF for 24 hrs, FIG. 2B. As to the method: as §1
A general note: In western blotting, separated proteins are transferred to a membrane and probed.

Another experiment concerns Hst578t. Kind of experiment: Cell Death Detection ELISA PLUS apoptosis assay. It is filed as cell-based, Human. The settings on record: 1 μM AF, Hst578t listed as AF insensitive, 24 h or 48 h, FIG. 2A. On the procedure:
(§2) To determine the induction of apoptosis, the Cell Death Detection ELISA^PLUS Assay (Roche Cat. No. 11774425001), which determines the degree of cytoplasmic mono- and oligonucleosomes, was employed as described by the manufacturer. Briefly, breast cancer cells (5,000 cells for MCF-7; 2,000 cells for MDA-MB-231; 15,000 cells for T47D; 15,000 cells for MDA-MB-468; 5,000 cell for Hst578) were plated on 96 well plates and treated the next morning with or without or 1 uM AF for 24 h or 48 h. Cells were then concentrated by centrifugation at 200 g for 10 min at room temperature and the supernatant was discarded. Cells were lysed, and cytoplasmic fractions containing fragmented DNA were transferred to streptavidin-coated microtiter plates preincubated with a biotinylated monoclonal anti-histone antibody. The amount of fragmented nucleosomes bound to anti-histone antibody was evaluated by peroxidase-conjugated monoclonal antibody using ABTS (2,2-azino-di[3-ethylbenzthiazoline sulfonate-6-diammonium salt]) as a substrate, and read in a microplate reader at 405 nm. Non-treated cells were employed as controls.

The test system of the next experiment is MDA-MB-231. Kind of experiment: Cell Death Detection ELISA PLUS apoptosis assay. It is filed as cell-based, Human. As to conditions: 1 μM AF, MDA-MB-231, 24 h or 48 h, FIG. 2A. On the procedure: as §2
Another experiment relates to U251. As to conditions: U251 CNS cancer cell line, NIH dose response data; cited from earlier work.

In the case of `Cc1c(F)c(N)c2c(=O)cc(-c3ccc(N)c(F)c3)oc2c1F` [AF, 5-amino-2-(4-amino-3-fluorophenyl)-6,8-difluoro-7-methylchromen-4-one], the AF sensitivity result in the experiment on SW620 is recorded as “AF sensitive”; in the experiment on BT-549, “AF in-sensitive”; in the experiment with U251 it was “some degree of sensitivity”. The “presence of gamma-H2AX (double stranded DNA breaks)” value in experiment [1] was “observed”; in experiment [2], “not observed at all”. For the same molecule, the “increase in cytoplasmic nucleosomes” value in the experiment with Hst578t and with MDA-MB-231 was less than 2 fold each time.
